# Test results published in patent publication US8691255B2, “Method of producing high alcohol content foaming compositions with silicone-based surfactants” (Deb Worldwide Healthcare Inc., priority 2005, dated 2014).
# Assay: Foam evaluation of the prepared solutions: foam produced or not, and foam description
# Type: physicochemical
# Conditions: alone, 40% ethanol, 3% CAPB; compared with 60% v/v ethanol and less than 1.0% silicone-based surfactants
# Protocol: Examples 1 through 12 were prepared to illustrate the ability to produce alcohol-based disinfecting formulations which can be dispensed as foams using different surfactants and a solution of water and 50% ethanol. Examples 13 through 16 illustrate increasing concentrations of a silicone-based surfactant to produce foam with 40% ethanol. Examples 17 through 32 show increasing concentrations of ethanol with different silicone-based surfactants to produce foam. Examples 33 through 36 illustrate increasing concentrations of a silicone-based surfactant to produce acceptable foam at 62% ethanol. Examples 37 through 52 illustrate the ability to produce foam using different surfactants and a solution of 70% v/v Isopropanol. All parts and percentages are expressed by weight unless otherwise indicated.
# The following examples were intended to evaluate the foaming ability of different groups of Silicon surfactants with different combinations of ethanol, n-propyl alcohol and Isopropyl alcohol. They were also designed to assess the effect in the after feel as well as in the foam quality of some emollients and humectants, lipids, and other cosmetic type desired ingredients to be used with a leave-on hand sanitizer product. […]
# The solutions prepared, were evaluated as to whether foam was produced or not and if so, then the foam produced was described as follows: […]
substance,measurement,value
Cocamidopropyl betaine,foam results,unable to produce as good results
